Assay results: article PMC10342804, “Neuroprotective and Disease-Modifying Effects of the Triazinetrione ACD856, a Positive Allosteric Modulator of Trk-Receptors for the Treatment of Cognitive Dysfunction in Alzheimer’s Disease” (International Journal of Molecular Sciences, 2023)

B1: NT3: neurotrophin-3, binds to TrkC (protein, UniProt P20783 139-257, looked up)
Neurotrophin-3: YAEHKSHRGEYSVCDSESLWVTDKSSAIDIRGHQVTVLGEIKTGNSPVKQYFYETRCKEARPVKNGCRGIDDKHWNSQCKTSQTYVRALTSENNKLVGWRWIRIDTSCVCALSRKIGRT
B2: BDNF: recombinant human brain-derived neurotrophic factor (PeproTech 450-02) (protein, UniProt P23560 19-247, looked up)
Neurotrophic factor BDNF …: APMKEANIRGQGGLAYPGVRTHGTLESVNGPKAGSRGLTSLADTFEHVIEELLDEDQKVRPNEENNKDADLYTSRVMLSSQVPLEPPLLFLLEEYKNYLDAANMSMRVRRHSDPARRGELSVCDSISEWVTAADKKTAVDMSGGTVTVLEKVPVSKGQLKQYFYETKCNPMGYTKEGCRGIDKRHWNSQCRTTQSYVRALTMDSKKRIGWRFIRIDTSCVCTLTIKRGR

What was measured:
[1] = design: method as in PMID 34440640; conditions: s.c., doses 0.3 mg/kg up to 3 mg/kg; cited from earlier work
primary cortical neurons [2] = assay: Resazurin assay, energy-deprived primary cortical neurons; format: cell-based, mouse; conditions: 10 ng/mL, no glucose or pyruvate, vs untreated cells
Method: (§1) Metabolic activity was determined by measuring reduction in resazurin (a). […] Data shown are the means of all replicates +/− SEM from at least three different primary cultures. * p-value < 0.05, ** p-value < 0.01, *** p-value < 0.001, **** p-value < 0.0001 compared to control group at one-way ANOVA with Dunnett’s multiple comparisons test.
Cells were seeded at […] in 96-well plates and treated at DIV4–5 in Neurobasal-A media with 2% B27 and 2 mM glutamine (no glucose or pyruvate was present). Two hours after treatment, a 10% volume of resazurin ready-to-use solution was added to the cell culture media, and the plates were returned to the incubator for a further four hours. Resazurin reduction is directly proportional to metabolic function and was evaluated fluorometrically at 540 nm excitation and 580 nm emission wavelengths using a SpectraMax iD5 plate reader. Results were presented as a percentage change compared to the control group.

primary cortical neurons [3] = assay: Mitochondrial ToxGlo assay (ATP levels, cell membrane integrity), energy-deprived primary neurons; format: cell-based, mouse; conditions: for cell membrane integrity: glucose and pyruvate withdrawal; for ATP levels: neurotrophins, 6 h, no glucose or pyruvate
Method: as §1
Mitochondrial ToxGlo assay was used to evaluate the cell membrane integrity and the ATP levels of PCN cells. At DIV4–5, cells seeded at […] in 96-well plates were treated for six and three hours with increasing doses of neurotrophins and ACD856, respectively, in Neurobasal-A media containing 2% B27 and 2 mM glutamine. No glucose or pyruvate was present in the cell media to prevent non-mitochondrial ATP production from glycolysis. Then, bis-AAF-R110, a fluorogenic substrate that is exclusively cleaved by proteases released from membrane-compromised cells, was added, and the plate was incubated at 37 °C for 30 min. Fluorescence was measured at 485 nm (Ex)/530 nm (Em) using a SpectraMax iD5 plate reader. Next, the ATP detection reagent was added, and luminescence was measured after 5 min incubation to assess ATP levels in lysed cells.

[4] = test system: ERK1/2 and Trk-receptors phosphorylation; assay: Western blot of pERK1/2 and phospho-Trk in cortical neurons stimulated with growth factors; format: cell-based, mouse; conditions: 10 ng/mL factor, 20 min
Method: (§2) Figure 2 Increased activation of TrkB and downstream signaling through ERKK1/2 MAPK phosphorylation by BDNF and ACD856. Levels of phosphorylated TrkB receptors were determined by ELISA in SH-SY5Y cells overexpressing the human TrkB receptor (a). Effect of 0 (open bars), 10 (light grey bars), or 30 ng BDNF/mL (dark grey bars) and time course on BDNF-induced TrkB tyrosine phosphorylation are depicted as the mean of one experiment performed in quadruplicates +/− SEM * p < 0.05. SH-SY5Y-TrkB cells were incubated with 30 ng BDNF/mL for 10 min in the absence (DMSO) or presence of increasing concentrations of ACD856 (b). […] Data shown are the mean value +/− SEM from three independent experiments where each experiment was performed using at least 5 technical repeats. The effect of different neurotrophic factors on the phosphorylation of ERK1/2 and Trk-receptors was investigated (c). Cortical neurons were stimulated with 10 ng/mL of the indicated factors, and the levels of pERK1/2 (upper panel), phospho-Trk (tyrosine 674/675) (mid panel), and beta-actin as a loading control (lower panel) were analyzed by Western blot. Primary cortical neurons were incubated with 300 nM ACD856 for the indicated time periods in the absence of exogenous BDNF (d). The levels of phosphorylated ERK1/2 were determined by immunocytochemistry, and the total count per well of pERK1/2-positive neurites was determined. Fluorescence image at ×10 magnification showing phospho-ERK1/2 detected with immunocytochemistry in cortical neurons (e). * p < 0.05, ** p < 0.01 compared to control group at one-way ANOVA with Dunnett’s multiple comparisons test. Data shown are the mean value of all replicates +/− SEM from three different experiments.
Phosphorylated ERK 1/2 (pERK1/2) levels were evaluated in mouse primary neurons between DIV10–15. Cells were seeded at (60 × 10^4 cells) in 6-well plates coated with poly-D-Lysine. The activation of the Trk signaling pathway was induced with 10 ng/mL ligand for 20 min. Cells were thereafter immediately lysed on ice, sonicated, and denatured at 95 °C for 10 min on a heating block. Proteins were separated on a Novex Bis-Tris 4–12% gel and transferred to a PVDF membrane using an iBlot instrument (Invitrogen). The membrane was blocked using 5% BSA in TBS-T followed by incubation with anti-phospho-p44/42 MAPK (ERK1/2) rabbit monoclonal antibody (Cell Signaling CS-4370) (dilution 1:1000) in TBS-T with 0.1% BSA for at least 60 min. […] After washing, a Western blot detection reagent (Forte, Millipore) was added, and immunoreactive proteins were detected by luminescence using C-DiGit Blot Scanner and quantified with Image Studio™ Software (version 5.2). […]

C57BL/6J mice = assay: Forced swim test; format: in vivo, mouse; conditions: ACD856 1 mg/kg s.c. five days; ketamine single dose 10 mg/kg seven days prior to swimming session
Method: Depression-like behavior was assessed in male C57BL/6J mice using a modified version of the FST, as described previously. This included a two-day protocol test, with pre-exposure to water 24 h prior to the test (day one of FST), which seems to be a more accurate and sensitive technique in detecting depression-like behavior in mice than the standard method of a single exposure (one day test). Animals were individually placed in a vertical glass cylinder (50 cm high, 20 cm in diameter, CMA) filled with tap water up to 35 cm (25 ± 0.5 °C). Two swimming sessions were conducted: a 10 min pre-test (day one) followed 24 h later (day two) by a 6 min test session. The total duration of immobility, as well as latency to the first immobility, were recorded during the 6 min test. After each swimming session, the mice were gently removed and placed in a home cage together with dry napkins. Immobility was defined as floating passively in an upright position in water with only small movements necessary to keep the head above the water’s surface. The floating time was considered an index of depression-like behavior. The glass cylinder was cleaned thoroughly between each animal.

human TrkB receptor = biological target: T1, human TrkB receptor (Homo sapiens, UniProt Q16620); assay: Phospho-TrkB ELISA in SH-SY5Y cells overexpressing TrkB; format: cell-based; conditions: 10 or 30 ng BDNF/mL, time course
T1 construct: host or cells: SH-SY5Y (human neuroblastoma) stably expressing TrkB
Method: as §2, with “The effect of different neurotrophic factors on the phosphorylation of ERK1/2 and Trk-receptors was investigated (c).” left out, “Primary cortical neurons were incubated with 300 nM ACD856 for the indicated time periods in the absence of exogenous BDNF (d).” left out, “Data shown are the mean value of all replicates +/− SEM from three different experiments.” left out

Molecule | metabolic activity (reduction of resazurin) (primary cortical neurons [2]) | cell membrane integrity (primary cortical neurons [3]) | ATP levels (primary cortical neurons [3]) | phosphorylation of ERK1/2 [4] | phosphorylation of Trk-receptors (pY674/675) [4] | also measured
Cc1cc(-n2c(=O)[nH]c(=O)n(C)c2=O)ccc1Oc1ccc(S(=O)(=O)C(F)(F)F)cc1 [ACD855] | – | – | – | – | – | pro-cognitive effects in cognition models [1]: potent pro-cognitive effects
NGF: recombinant human nerve growth factor (PeproTech 450-01) | significantly higher fluorescence | improved cell membrane integrity | able to increase ATP levels | – | – | –
BDNF: recombinant human brain-derived neurotrophic factor (PeproTech 450-02) | significantly higher fluorescence | improved cell membrane integrity | able to increase ATP levels | the most effective growth factors with respect to inducing phosphorylation of ERK1/2 | the only growth factors that induced phosphorylation of Trk-receptors | –
CNC1(c2ccccc2Cl)CCCCC1=O (stereo not shown) [Ketamine, ketamine] | – | – | – | – | – | prolonged effect on immobility time in forced swim test (C57BL/6J mice): prolonged antidepressive-like effects
B1 | – | – | – | the most effective growth factors with respect to inducing phosphorylation of ERK1/2 | the only growth factors that induced phosphorylation of Trk-receptors | –
B2 | – | – | – | – | – | BDNF-induced TrkB tyrosine phosphorylation (human TrkB receptor): in a dose- and time-dependent manner, increase TrkB phosphorylation
